Read-outs that look alike come from different tables or passages of the source. Starred links: 1 amine or outer side, 2 acyl side, 3 side chain; linkers in the order of their positions; H or OH if unused. Positions of bridges follow the written chain, without caps; N, C: chain ends. Non-standard residues stand in square brackets, D forms with d. Residues, ends and D or L forms follow the SMILES beside them. *: point of attachment. X3 = O=C(O)COc1ccccc1-c1ccc(C[C@H](N[*:1])C(=O)[*:2])cc1; Phe(3-OCH2COOH) = N[C@@H](Cc1cccc(OCC(=O)O)c1)C(=O)O; Phe(4-COOH) = N[C@@H](Cc1ccc(C(=O)O)cc1)C(=O)O; Trp(7-aza) = N[C@@H](Cc1c[nH]c2ncccc12)C(=O)O; Piperidinyl(4-CH2COOH) = O=C(O)CC1CCN(*)CC1; Gly(N(CH2)3COOH) = O=C(O)CCCNCC(=O)O; X1 = CCCCCCC[C@H](N[*:1])C(=O)[*:2]; NMeF = CN[C@@H](Cc1ccccc1)C(=O)O; NMeA = CN[C@@H](C)C(=O)O; Sar = CNCC(=O)O
Experiments:
Myostatin = target: T1, Myostatin (Homo sapiens, UniProt O14793); assay: HepG2 reporter gene assay, Evaluation Procedure (2): 2-concentrations assay, myostatin inhibition; type: cell-based
T1 construct: active myostatin (also called mature myostatin) is a homodimer consisting of two C-terminal growth factor domains; purchased R&D systems 788-G8/CF
T1 sequence (O14793 267-375): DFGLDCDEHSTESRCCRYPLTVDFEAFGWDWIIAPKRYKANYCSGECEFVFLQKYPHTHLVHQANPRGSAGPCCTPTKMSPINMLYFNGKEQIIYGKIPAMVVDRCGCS
In short: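 Myostatin inhibition was measured in a luciferase reporter assay using HepG2 cells transfected with a pGL3 vector containing 12 CAGA repeats upstream of luciferase. After 20 to 24 hours with 10 ng/mL myostatin, cells received One-Glo:PBS (1:1) at 100 µL/well, were shaken for 5 min, and 20 µL/well was moved to 384-well plates and read on an Envision 2104.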

GDF-11 = target: T2, GDF-11 (Homo sapiens, UniProt O95390); assay: HepG2 reporter gene assay, Evaluation Procedure (2): 2-concentrations assay, GDF-11 inhibition; type: cell-based; details: for inhibition at 0.03 µM: HepG2, peptide 30nM, read-out: GDF11 Inhibition 30nM; for inhibition at 0.03 µM / inhibition at 0.1 µM: GDF-11 10 ng/mL; for inhibition at 0.1 µM: HepG2, peptide 100nM, read-out: GDF11 Inhibition 100nM
T2 construct: purchased R&D systems 1958-GD-G8/CF
T2 sequence (O95390 299-407): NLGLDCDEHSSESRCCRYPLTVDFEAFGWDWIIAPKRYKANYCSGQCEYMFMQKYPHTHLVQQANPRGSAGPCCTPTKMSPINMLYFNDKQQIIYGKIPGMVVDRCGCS
In short: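 HepG2 cells carrying the transfected pGL3(CAGA)12-luc reporter, a pGL3 vector with luciferase placed downstream of 12 CAGA repeats, were stimulated with GDF-11 at a final 10 ng/mL together with test peptide. Blank wells received no GDF-11 and no peptide. Plates were incubated 20 to 24 hours at 37°C with 5% CO2. Luminescence from One-Glo substrate was read to calculate percent inhibition.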

[1] = peptide 30nM, Myostatin 10 ng/mL, HepG2, read-out: Myostatin Inhibition 30nM
[2] = peptide 100nM, Myostatin 10 ng/mL, HepG2, read-out: Myostatin Inhibition 100nM
[3] = HepG2, read-out: inhibition rate (myostatin inhibition assay)

SMILES	inhibition at 0.03 µM (Myostatin; [1])	inhibition at 0.1 µM (Myostatin; [2])	inhibition at 0.03 µM (GDF-11)	inhibition at 0.1 µM (GDF-11)	other results
CC[C@H](C)[C@@H]1NC(=O)[C@H](Cc2ccccc2)N(C)C(=O)[C@H](Cc2ccc(O)cc2)NC(=O)[C@H](Cc2c[nH]c3ccccc23)NC(=O)[C@H](CCCNC(=N)N)NC(=O)[C@H](C)NC(=O)CSC[C@@H](C(=O)N[C@H](CCC(=O)O)C(N)=O)NC(=O)[C@H](Cc2ccccc2)N(C)C(=O)[C@H](C)N(C)C(=O)[C@H](CC(C)C)NC(=O)[C@H](Cc2ccccc2)N(C)C(=O)[C@H](CCCNC(=N)N)NC(=O)[C@H](Cc2ccc(O)cc2)NC(=O)[C@H](Cc2ccc(O)cc2)NC(=O)CN(C)C1=O [Myostatin_000099_16de] ({CH2CO}-ARWY[NMeF]I[Sar]YYR[NMeF]L[NMeA][NMeF]C[dE]-NH2; thioether N-15)	50%	82%	0%	3%	
CCCCCCC[C@@H]1NC(=O)[C@H](Cc2ccccc2)N(C)C(=O)[C@H](CCCNC(=N)N)NC(=O)[C@H](Cc2ccc(C(=O)O)cc2)NC(=O)[C@H](Cc2cccc(OCC(=O)O)c2)NC(=O)[C@H](C)N(C)C(=O)[C@H]([C@@H](C)CC)NC(=O)[C@H](Cc2ccccc2)N(C)C(=O)[C@H](Cc2ccc(O)cc2)NC(=O)[C@H](Cc2c[nH]c3ccccc23)NC(=O)[C@H](C)NC(=O)CN(CCCC(=O)O)C(=O)CSC[C@H](C(=O)N2CCC(CC(=O)O)CC2)NC(=O)[C@H](Cc2ccccc2)N(C)C(=O)[C@H](C)N(C)C1=O [Myostatin_99_v430] ({CH2CO}-[Gly(N(CH2)3COOH)]AWY[NMeF]I[NMeA][Phe(3-OCH2COOH)][Phe(4-COOH)]R[NMeF][X1][NMeA][NMeF][dC]-{Piperidinyl(4-CH2COOH)}; thioether N-15)					inhibition at 0.1 µM (Myostatin; Table 7-3/7-4, myostatin 10 ng/mL, peptide at the higher of the 2 concentrations, HepG2, read-out: inhibition rate (myostatin inhibition assay)): 100%; inhibition at 0.03 µM (Myostatin; Table 7-3/7-4, myostatin 10 ng/mL, peptide at the lower of the 2 concentrations, HepG2, read-out: inhibition rate (myostatin inhibition assay)): 100%; inhibition (GDF-11; HepG2, first GDF-11 column of Table 7-3/7-4, GDF-11 10 ng/mL, peptide at the lower of the 2 concentrations, read-out: inhibition rate (GDF-11 inhibition assay)): 0%; inhibition (GDF-11; HepG2, second GDF-11 column of Table 7-3/7-4, GDF-11 10 ng/mL, peptide at the higher of the 2 concentrations, read-out: inhibition rate (GDF-11 inhibition assay)): 0%
CCCCCCC[C@@H]1NC(=O)[C@H](Cc2ccccc2)N(C)C(=O)[C@H](CCCNC(=N)N)NC(=O)[C@H](Cc2ccc(C(=O)O)cc2)NC(=O)[C@H](Cc2ccc(-c3ccccc3OCC(=O)O)cc2)NC(=O)[C@H](C)N(C)C(=O)[C@H]([C@@H](C)CC)NC(=O)[C@H](Cc2ccccc2)N(C)C(=O)[C@H](Cc2ccc(O)cc2)NC(=O)[C@H](Cc2c[nH]c3ccccc23)NC(=O)[C@H](C)NC(=O)CN(CCCC(=O)O)C(=O)CSC[C@H](C(=O)O)NC(=O)[C@H](Cc2ccccc2)N(C)C(=O)[C@H](C)N(C)C1=O [Myostatin_99_v371] ({CH2CO}-[Gly(N(CH2)3COOH)]AWY[NMeF]I[NMeA][X3][Phe(4-COOH)]R[NMeF][X1][NMeA][NMeF][dC]-OH; thioether N-15)					inhibition at 0.03 µM (Myostatin; [3]): 100%; inhibition at 0.1 µM (Myostatin; [3]): 100%; inhibition (GDF-11; HepG2, read-out: inhibition rate (GDF-11 inhibition assay), Table 7-3/7-4, GDF-11 10 ng/mL, peptide at the higher of the 2 concentrations): 0%; inhibition (GDF-11; HepG2, read-out: inhibition rate (GDF-11 inhibition assay), Table 7-3/7-4, GDF-11 10 ng/mL, peptide at the lower of the 2 concentrations): 0%
CC[C@H](C)[C@@H]1NC(=O)[C@H](Cc2ccccc2)N(C)C(=O)[C@H](Cc2ccc(O)cc2)NC(=O)[C@H](Cc2c[nH]c3ncccc23)NC(=O)[C@H](C)NC(=O)[C@H](C)NC(=O)CSC[C@H](C(=O)N[C@H](CO)C(=O)N[C@H](CO)C(=O)N[C@H](CO)C(=O)N[C@H](CCCCN)C(=O)O)NC(=O)[C@H](Cc2ccccc2)N(C)C(=O)[C@H](C)N(C)C(=O)[C@H](CC(C)C)NC(=O)[C@H](Cc2ccccc2)N(C)C(=O)[C@H](CCCNC(=N)N)NC(=O)[C@H](Cc2ccc(C(=O)O)cc2)NC(=O)[C@H](Cc2ccccc2)NC(=O)CN(C)C1=O [Myostatin_99_v35] ({CH2CO}-AA[Trp(7-aza)]Y[NMeF]I[Sar]F[Phe(4-COOH)]R[NMeF]L[NMeA][NMeF][dC][dS][dS][dS][dK]-OH; thioether N-15)	95%	100%	13%	36%	

From EP4786487A1, “PEPTIDE” (Peptidream Inc, priority 2023, dated 2025)
